Source: US20260167622A1, “PAN-KRAS DEGRADING AGENT, AND PREPARATION METHOD THEREFOR AND USE THEREOF” (LEADINGTAC PHARMACEUTICAL (SHAOXING) CO., LTD., priority 2022, published 2026)

Experiments:
Assay type in all cases: cell-based
[1] = test system: KRAS G12D mutant human lung cancer cell A427; test: 3D cell proliferation inhibition assay, A427; conditions: A-427, 168 h, 3D culture, 7 days, CTG
How it was run: (§1)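 Cells were seeded in low-adsorption 96-well plates at 5×10^2 cells/well (MKN1 at 1×10^3) with compounds at final 10000-0.026 nM, 0.2% DMSO, and grown 7 days at 37° C. CTG luminescence gave inhibition relative to DMSO and medium-only controls, and IC50 came from a log-concentration curve fit.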

[2] = test system: KRAS G12D mutant human metastatic pancreatic cancer cell AsPc-1; test: 3D cell proliferation inhibition assay, AsPc-1; conditions: ASPC1, 168 h, 3D culture, 7 days, CTG
How it was run: as §1

[3] = test system: KRAS WT human gastric cancer cell MKN1; test: 3D cell proliferation inhibition assay, MKN1; conditions: MKN-1, 168 h, 3D culture, 7 days, CTG
How it was run: as §1

[4] = test system: KRAS G12C mutant human non-small cell lung cancer cell NCI-H358; test: 3D cell proliferation inhibition assay, NCI-H358; conditions: NCI-H358, 168 h, 3D culture, 7 days, CTG
How it was run: as §1

[5] = test system: KRAS G12D mutant human gastric cancer cell AGS; test: 3D cell proliferation inhibition assay, AGS; conditions: 168 h, 3D culture, 7 days, CTG
How it was run: as §1

[6] = test system: KRAS G12V mutant human colorectal cancer cell SW620; test: 3D cell proliferation inhibition assay, SW620; conditions: SW-620, 168 h, 3D culture, 7 days, CTG
How it was run: as §1

[7] = test system: KRAS G12V mutant human lung squamous carcinoma cell SW900; test: 3D cell proliferation inhibition assay, SW900; conditions: SW900, 168 h, 3D culture, 7 days, CTG
[8] = molecular target: T1, KRAS G12V protein in SW900 cells (Homo sapiens, UniProt P01116, G12V); test: KRAS degradation assay (Western Blot) in SW900 cells; conditions: 24 h
T1 construct: endogenous in cells; host or cells: SW900
How it was run: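 DC50 and Dmax were fitted from KRAS band intensity, corrected to β-actin and expressed against untreated control, after Western blotting of 5 μg lysate protein. Cells were exposed for 24 h at 37 °C to 0.03-3000 nM compound (final) with 0.25% DMSO.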

[9] = test system: KRAS G13D mutant human colorectal cancer epithelial cell DLD-1; test: 3D cell proliferation inhibition assay, DLD-1; conditions: DLD-1, 168 h, 3D culture, 7 days, CTG
How it was run: as §1

T1 sequence (P01116 1-188 isoform P01116-2 G12V): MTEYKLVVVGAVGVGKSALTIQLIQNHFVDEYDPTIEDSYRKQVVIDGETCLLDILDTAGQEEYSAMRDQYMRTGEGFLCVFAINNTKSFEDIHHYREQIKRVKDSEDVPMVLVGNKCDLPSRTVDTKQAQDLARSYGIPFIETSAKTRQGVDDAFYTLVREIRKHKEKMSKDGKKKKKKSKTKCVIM

## C#Cc1c(F)ccc2cc(O)cc(-c3ccc4c(N5CCC[C@@](C)(O)C5)nc(OCC5(CN6CCN(CC7CCC8(CC7)CCN(C(=O)c7ccc(Cl)c(N9CCC(=O)NC9=O)c7)CC8)CC6)CC5)nc4c3F)c12 [Example 33, (R)-1-(2-chloro-5-(9-((4-((1-(((7-(8-ethynyl-7-fluoro-3-hydroxynaphthalen-1-yl)-8-fluoro-4-(3-hydroxy-3-methylpiperidin-1-yl)quinazolin-2-yl)oxy)methyl)cyclopropyl)methyl)piperazin-1-yl)methyl)-3-azaspiro[5.5]undecane-3-carbonyl)phenyl)dihydropyrimidine-2,4(1H,3H)-dione]
[1]
  IC50: ≤ 50 nM
[2]
  IC50: ≤ 50 nM
[3]
  IC50: 50 to 100 nM
[4]
  IC50: 50 to 100 nM
[5]
  IC50: ≤ 50 nM
[6]
  IC50: 7.71 nM
[7]
  IC50: 50 to 100 nM
[8]
  DC50: ≤ 50 nM
  Dmax: 80 to 100%
[9]
  IC50: ≤ 50 nM
